Patent publication US20260356841A1, “HETEROCYCLIC PYRIDINONE COMPOUNDS AS TRIGGERING RECEPTOR EXPRESSED ON MYELOID CELLS 2 AGONISTS AND METHODS OF USE” (Vigil Neuroscience, Inc., priority 2023, published 2026)

Biological target: T1, human TREM2 (Homo sapiens, UniProt Q9NZC2)
T1 construct: expressed in transfected cells; host or cells: HEK293T (HEK293T-hTREM2 cells)
Assay: TREM2 agonist potency by cellular phosphorylation of Spleen Tyrosine Kinase (Syk), AlphaLisa, HEK293T-hTREM2 cells
Assay type: cell-based
Settings: not given
Protocol: Measurement of TREM2 agonist potency was done using a HEK cell line expressing human TREM2 and DAP12 (HEK293T-hTREM2 cells). Binding of small molecules to, and activation of, TREM2 increases the phosphorylation of Syk. The resultant levels of Syk phosphorylation are measured using a commercial AlphaLisa reagent kit. To perform the assay, HEK-hTREM2 cells were plated at 14,000 cells per well in a 384 well plate, in 25 μL of complete growth media and incubated at 37° C., 5% CO2 for 20-24 hours.
Prior to the assay, test compounds were diluted in the 384 well plates in assay buffer and allowed to equilibrate for 30 minutes. Growth media was removed from cell plates by inversion on blotting paper, and 25 μL of test articles in assay buffer was added to cells. Cells were incubated for 45 minutes at room temperature. After 45 minutes, assay buffer was removed and 10 μL of lysis buffer was added. Plates were shaken for 20 minutes at 350 RPM at room temperature. After complete lysis, AlphaLisa reagents were added to the lysate, and fluorescence intensity was measured using a Perkin Elmer Envision plate reader. Intensities were used to generate a standard curve, and % activation was calculated. Curve fitting was performed using Prism v9 software, log (agonist) vs response-variable slope (four parameters), and EC50s were calculated from the curve fit.
The results presented in Table B have been generated with the in vitro assay described above. This assay may be used to test any of the compounds described herein to assess and characterize a compound's ability to act as an agonist of TREM2.

T1 sequence (Q9NZC2 19-230): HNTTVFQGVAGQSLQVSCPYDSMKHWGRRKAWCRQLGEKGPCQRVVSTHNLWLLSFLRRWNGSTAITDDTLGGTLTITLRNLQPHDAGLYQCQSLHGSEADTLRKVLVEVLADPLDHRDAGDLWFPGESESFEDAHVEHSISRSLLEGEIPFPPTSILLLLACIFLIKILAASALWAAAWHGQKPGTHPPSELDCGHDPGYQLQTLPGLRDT
T1 sequence (O43914 22-113 partner): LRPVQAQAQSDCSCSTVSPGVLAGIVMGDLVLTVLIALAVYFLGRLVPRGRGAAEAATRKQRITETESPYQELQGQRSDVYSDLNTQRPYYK

| EC50 | Structure (SMILES) |
| --- | --- |
| < 100 nM | Cc1nc2nc(N3C[C@@H](C)O[C@@H](c4ccc(=O)n(C)c4)C3)nc(-c3ccc(C(F)(F)F)cc3F)c2nc1C [Example 7, 5-[(2S,6R)-4-[4-[2-fluoro-4-(trifluoromethyl)phenyl]-6,7-dimethyl-pteridin-2-yl]-6-methyl-morpholin-2-yl]-1-methyl-pyridin-2-one] |

Same assay, conditions: hTREM2 EC50 Data (HEK293 Cells); Syk phosphorylation, AlphaLisa; read-out: hTREM2 EC50

| Structure (SMILES) | EC50 |
| --- | --- |
| Cc1nc2nc(C3CCO[C@@H](c4ccc(=O)n(-c5cscn5)c4)C3)nc(C34CC(C(F)(F)F)(C3)C4)c2nc1C (mixture of isomers) [Example 109, 5-((2R)-4-(6,7-dimethyl-4-(3-(trifluoromethyl)bicyclo-[1.1.1]pentan-1-yl)pteridin-2-yl)tetrahydro-2H-pyran-2-yl)-1-(thiazol-4-yl)pyridin-2(1H)-one] | < 100 nM |
| Cc1nc2c(C34CC(C(F)(F)F)(C3)C4)nc([C@H]3CCO[C@@H](c4ccc(=O)[nH]c4)C3)nc2c(=O)n1C (racemic) [Example 216, 2,3-dimethyl-6-[rac-(2R,4S)-2-(6-oxo-1H-pyridin-3-yl)tetrahydropyran-4-yl]-8-[3-(trifluoromethyl)-1-bicyclo[1.1.1]pentanyl]pyrimido[5,4-d]pyrimidin-4-one] | 100 to 500 nM |
| Cc1nc2c(C34CC(C(F)(F)F)(C3)C4)nc([C@H]3CCO[C@@H](c4ccc(=O)n(C)c4)C3)nc2c(=O)n1C (racemic) [Example 217, 2,3-dimethyl-6-[rac-(2R,4S)-2-(1-methyl-6-oxo-3-pyridyl)tetrahydropyran-4-yl]-8-[3-(trifluoromethyl)-1-bicyclo[1.1.1]pentanyl]pyrimido[5,4-d]pyrimidin-4-one] | < 100 nM |
| Cc1nc2c(C34CC(C(F)(F)F)(C3)C4)nc([C@H]3CCO[C@@H](c4ccc(=O)n(N)c4)C3)nc2c(=O)n1C (racemic) [Example 218, 2,3-dimethyl-6-[rac-(2R,4S)-2-(1-amino-6-oxo-3-pyridyl)tetrahydropyran-4-yl]-8-[3-(trifluoromethyl)-1-bicyclo[1.1.1]pentanyl]pyrimido[5,4-d]pyrimidin-4-one] | 100 to 500 nM |
| Cc1nc2nc([C@H]3CCO[C@@H](c4ccc(=O)n(C)c4)C3)nc(C34CC(Cl)(C3)C4)c2nc1C (single isomer, unassigned) [Example 40] | < 100 nM |
| CN1Cc2c(cc([C@H]3CCO[C@@H](c4ccc(=O)n(C)c4)C3)nc2-c2ccc(C(F)(F)F)cc2F)C1=O (single isomer, unassigned) [Example 165] | 100 to 500 nM |
| CN(C)c1nc2nc([C@H]3CCO[C@H](c4ccc(=O)n(C)c4)C3)nc(-c3ccc(F)cc3F)c2s1 (stereo in doubt) [Example 11, 5-[(2S,4S)-4-[7-(2,4-difluorophenyl)-2-(dimethylamino)thiazolo[4,5-d]pyrimidin-5-yl]tetrahydropyran-2-yl]-1-methyl-pyridin-2-one] | 100 to 500 nM |
| Cc1nc2nc(C3CCO[C@@H](c4ccc(=O)n(N(C)C)c4)C3)nc(C34CC(C(F)(F)F)(C3)C4)c2nc1C(F)F (stereo in doubt) [Example 220, 5-((2R,4R)-4-(6-(difluoromethyl)-7-methyl-4-(3-(trifluoromethyl)bicyclo[1.1.1]pentan-1-yl)pteridin-2-yl)tetrahydro-2H-pyran-2-yl)-1-(dimethylamino)pyridin-2(1H)-one] | < 100 nM |
| Cc1nc2nc([C@H]3CCO[C@@H](c4ccc(=O)n(C)c4)C3)nc(-c3ccc(C(F)(F)F)cc3F)c2nc1C [Example 4, 1-methyl-5-[(2R,4S)-4-[4-[2-fluoro-4-(trifluoro-methyl)phenyl]-6,7-dimethyl-pteridin-2-yl]tetrahydropyran-2-yl]pyridin-2-one] | < 100 nM |
| Cc1nc2nc([C@@H]3CCO[C@H](c4ccc(=O)n(C)c4)C3)nc(-c3ccc(C(F)(F)F)cc3F)c2nc1C [Example 5, 1-methyl-5-[(2S,4R)-4-[4-[2-fluoro-4-(trifluoromethyl)phenyl]-6,7-dimethyl-pteridin-2-yl]tetrahydropyran-2-yl]pyridin-2-one] | < 100 nM |
| CN(C)c1nc2nc([C@H]3CCO[C@@H](c4ccc(=O)n(C)c4)C3)nc(-c3ccc(F)cc3F)c2s1 [Example 13, 5-[(2R,4S)-4-[7-(2,4-difluorophenyl)-2-(dimethylamino)thiazolo[4,5-d]pyrimidin-5-yl]tetrahydropyran-2-yl]-1-methyl-pyridin-2-one] | 100 to 500 nM |
| Cc1nc2nc([C@H]3CCO[C@@H](c4ccc(=O)n(C)c4)C3)nc(-c3ccc(C(F)(F)F)c(F)c3F)c2nc1C [Example 18, 5-[(2R,4S)-4-[4-[2,3-difluoro-4-(trifluoromethyl)-phenyl]-6,7-dimethyl-pteridin-2-yl]tetrahydropyran-2-yl]-1-methyl-pyridin-2-one] | 100 to 500 nM |
| Cc1nc2nc(N3C[C@@H](C)O[C@@H](c4ccc(=O)n(C)c4)C3)nc(-c3cnc(C4CC4)s3)c2nc1C [Example 21, 5-[(2S,6R)-4-[4-(2-cyclopropylthiazol-5-yl)-6,7-dimethyl-pteridin-2-yl]-6-methyl-morpholin-2-yl]-1-methyl-pyridin-2-one] | < 100 nM |
| Cc1nc2nc(N3C[C@@H](C)O[C@@H](c4ccc(=O)n(C)c4)C3)nc(-c3cnc(C(F)(F)F)s3)c2nc1C [Example 23, 5-[(2S,6R)-4-[6,7-dimethyl-4-[2-(trifluoromethyl)thiazol-5-yl]pteridin-2-yl]-6-methyl-morpholin-2-yl]-1-methyl-pyridin-2-one] | < 100 nM |
| Cc1nc2nc([C@H]3CCO[C@@H](c4ccc(=O)n(C)c4)C3)nc(C34CC(C(F)(F)F)(C3)C4)c2nc1C [Example 25, 5-((2R,4S)-4-(6,7-dimethyl-4-(3-(trifluoromethyl)bicyclo[1.1.1]pentan-1-yl)pteridin-2-yl)tetrahydro-2H-pyran-2-yl)-1-methylpyridin-2(1H)-one] | < 100 nM |
| Cc1nc2nc([C@@H]3CCO[C@H](c4ccc(=O)n(C)c4)C3)nc(C34CC(C(F)(F)F)(C3)C4)c2nc1C [Example 26, 5-[(2S,4R)-4-[6,7-dimethyl-4-[3-(trifluoromethyl)-1-bicyclo[1.1.1]-pentanyl]pteridin-2-yl]tetrahydropyran-2-yl]-1-methyl-pyridin-2-one] | < 100 nM |
| Cc1nc2nc([C@H]3CCO[C@@H](c4ccc(=O)n(C)c4)C3)nc(C3CCC(F)(F)CC3)c2nc1C [Example 28, 5-((2R,4S)-4-(4-(4,4-difluorocyclohexyl)-6,7-dimethylpteridin-2-yl)tetrahydro-2H-pyran-2-yl)-1-methylpyridin-2 (1H)-one] | < 100 nM |

Results, then the molecule that gave them:

| EC50 | Structure (SMILES) |
| --- | --- |
| < 100 nM | Cc1nc2nc([C@@H]3CCO[C@@H](c4ccc(=O)n(C)c4)C3)nc(-c3ccc(Cl)cc3F)c2nc1C (racemic) [Example 9, 1-methyl-5-[rac-(2R,4R)-4-[4-(4-chloro-2-fluoro-phenyl)-6,7-dimethyl-pteridin-2-yl]tetrahydropyran-2-yl]pyridin-2-one] |
| < 100 nM | Cc1nc2nc([C@H]3CCO[C@@H](c4ccc(=O)n(C)c4)C3)nc(-c3ccc(F)cc3F)c2nc1C [Example 1, 1-methyl-5-[(2R,4S)-4-[4-(2,4-difluorophenyl)-6,7-dimethyl-pteridin-2-yl]tetrahydropyran-2-yl]pyridin-2-one] |
| > 500 nM | Cc1nc2nc([C@@H]3CCO[C@H](c4ccc(=O)n(C)c4)C3)nc(-c3ccc(F)cc3F)c2nc1C [Example 2, 5-[(2S,4R)-4-[4-(2,4-difluorophenyl)-6,7-dimethyl-pteridin-2-yl]tetrahydropyran-2-yl]-1-methyl-pyridin-2-one] |
| < 100 nM | CN(C)c1nc2nc([C@@H]3CCO[C@H](c4ccc(=O)n(C)c4)C3)nc(-c3ccc(F)cc3F)c2s1 [Example 14, 5-[(2S,4R)-4-[7-(2,4-difluorophenyl)-2-(dimethylamino)thiazolo[4,5-d]pyrimidin-5-yl]tetrahydropyran-2-yl]-1-methyl-pyridin-2-one] |
| < 100 nM | CN(C)c1nc2nc(C3CCOC(c4ccc(=O)n(C)c4)C3)nc(-c3ccc(F)cc3F)c2s1 (stereo not drawn) [Example 15] |
| < 100 nM | Cc1nc2nc(N3C[C@@H](C)O[C@@H](c4ccc(=O)n(C)c4)C3)nc(-c3ccc(F)cc3F)c2nc1C [Example 16, 5-[(2S,6R)-4-[4-(2,4-difluorophenyl)-6,7-dimethyl-pteridin-2-yl]-6-methyl-morpholin-2-yl]-1-methyl-pyridin-2-one] |
| < 100 nM | Cc1nc2nc([C@@H]3CCO[C@H](c4ccc(=O)n(C)c4)C3)nc(-c3ccc(C(F)(F)F)c(F)c3F)c2nc1C [Example 19] |
| < 100 nM | Cc1nc2nc(C3CCOC(c4ccc(=O)n(C)c4)C3)nc(C34CC(C(F)(F)F)(C3)C4)c2nc1C (stereo not drawn) [Example 27, 5-(4-(6,7-dimethyl-4-(3-(trifluoromethyl)-bicyclo[1.1.1]pentan-1-yl)pteridin-2-yl)tetrahydro-2H-pyran-2-yl)-1-methylpyridin-2(1H)-one] |
| 100 to 500 nM | Cc1nc2nc([C@@H]3CCO[C@H](c4ccc(=O)n(C)c4)C3)nc(C3CCC(F)(F)CC3)c2nc1C [Example 29, 5-((2S,4R)-4-(4-(4,4-difluorocyclohexyl)-6,7-dimethylpteridin-2-yl)tetrahydro-2H-pyran-2-yl)-1-methylpyridin-2 (1H)-one] |
